# Data as given in publication PMC6369847 (International Journal of Nanomedicine, 2019).
# Peptide text beside a SMILES is read from it. * marks the point of attachment. Stearoyl = CCCCCCCCCCCCCCCCCC(=O)*
# How the values were obtained:
# [1] = Body weight of mice during the antitumor assay; format: in vivo; conditions: tumor-bearing nude mice
# [2] = tested on: MDA-MB-231 tumors; assay: H&E staining and immunohistochemical analysis; format: in vivo, nude mice; conditions: tumor sections at 14 days, n=5
# [3] = tested on: MDA-MB-231 cells; assay: Cytotoxicity test by MTT assay, MDA-MB-231; format: cell-based; conditions: Homo sapiens, MDA-MB-231, 48 h
# [4] = In vivo pharmacokinetic studies of PTX; parameters: species or system Sprague Dawley rats
# [5] = tested on: HUVECs; assay: Transwell cell migration assay; format: cell-based, Human; conditions: 24 hours, Avstin 10 µg/mL, S-HM-3, TSm, HTSm 9 µg/mL, n=3
# [6] = Encapsulation efficiency and drug loading of micelles; format: physicochemical; conditions: S-HM-3 concentration ranging from 0.1 to 0.7 mg/mL; data not shown
# [7] = In vivo distribution studies of S-HM-3; parameters: species or system nude mice; conditions: MDA-MB-231 tumor-bearing mice, vein injection, free S-HM-3
# [8] = In vivo pharmacokinetic studies of S-HM-3; parameters: species or system Sprague Dawley rats; conditions: rat, background statement of the abstract
# [9] = male, Sprague Dawley, rat, plasma, iv, 7 mg/kg
molecule,measurement,setting,value
"CC(=O)O[C@H]1C(=O)[C@@]2(C)[C@H]([C@H](OC(=O)c3ccccc3)[C@]3(O)C[C@H](OC(=O)[C@H](O)[C@@H](NC(=O)c4ccccc4)c4ccccc4)C(C)=C1C3(C)C)[C@]1(OC(C)=O)CO[C@@H]1C[C@@H]2O [PTX, Paclitaxel]",toxicity judged from body weight,[1]; regimen of Table 1,high toxicity
same,weight loss of mice during the 0–10 days,[1]; regimen of Table 1,obvious
same,"antiangiogenesis effect (CD31, microvessel density)",[2],almost the same antiangiogenesis effect
same,IC50,[3],1.37 µg/mL
same,V1 of PTX,"[4]; SD rats, i.v. single dose, 7 mg/kg PTX",0.62 ± 0.08 L/kg
same,CL of PTX,"[4]; SD rats, i.v. single dose, 7 mg/kg PTX, 7 mg/kg",21.5 ± 2.83 mL/min/kg
same,Vd,[4]; [9],3.34 ± 0.5 L/kg
same,half-life,[4]; [9],1.79 ± 0.13 h
"Avstin: positive control of the cell migration assay, 10 µg/mL",endothelial cell MI rate (migration inhibition rate),[5],69.89%
CCCCCCCCCCCCCCCCCC(=O)N[C@H](C(=O)N[C@H](C(=O)N[C@@H](CCCNC(=N)N)C(=O)N[C@@H](CCCNC(=N)N)C(=O)N[C@@H](C)C(=O)N[C@@H](CC(=O)O)C(=O)N[C@@H](CCCNC(=N)N)C(=O)N[C@@H](C)C(=O)N[C@@H](C)C(=O)N[C@H](C(=O)N1CCC[C@H]1C(=O)NCC(=O)NCC(=O)NCC(=O)NCC(=O)N[C@@H](CCCNC(=N)N)C(=O)NCC(=O)N[C@@H](CC(=O)O)C(=O)O)C(C)C)C(C)C)[C@@H](C)CC [S-HM-3] (Stearoyl-IVRRADRAAVPGGGGRGD-OH; N-terminus and C-terminus assumed),endothelial cell MI rate (migration inhibition rate),[5],60.55%
same,encapsulation efficiency of S-HM-3,[6],> 97%
same,toxicity judged from body weight,[1]; regimen of Table 1,very low toxicity or nontoxic
same,body weight of mice during the test period,"[1]; regimen of Table 1, 14 days",significantly increased
same,"antiangiogenesis effect (CD31, microvessel density)",[2],almost the same antiangiogenesis effect
same,apoptosis in tumor cells (positive p53 rate),[2],did not induce significant apoptosis
same,time at which S-HM-3 in organs reached the peak,[7],24 min
same,time at which S-HM-3 was nearly cleared from organs,[7],60 min
same,half-life,[8],0.417 h
